Measurements reported in PubChem BioAssay (NCI).
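Growth conditions: 96-well plates. Treatment: test compound, 48 hours, 5 concentrations. Analysis: linear interpolation between bracketing concentrations; unreached endpoints set to highest concentration. TGI denotes the concentration required for complete inhibition of growth.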

Columns and labels:
Test in all cases: NCI tumour cell line growth inhibition, 48 h
[1] = tested on: 786-0 renal
[2] = tested on: A498 renal
[3] = tested on: A549 NSCLC
[4] = tested on: ACHN renal
[5] = tested on: CAKI-1 renal
[6] = tested on: CCRF-CEM leukemia
[7] = tested on: COLO 205 colon
[8] = tested on: DLD-1 colon
[9] = tested on: DMS 114 small cell lung
[10] = tested on: DMS 273 small cell lung
[11] = tested on: EKVX NSCLC
[12] = tested on: HCC-2998 colon
[13] = tested on: HCT-116 colon
[14] = tested on: HCT-15 colon
[15] = tested on: HL-60(TB) leukemia
[16] = tested on: HOP-62 NSCLC
[17] = tested on: HOP-92 NSCLC
[18] = tested on: HT29 colon
[19] = tested on: IGROV1 ovarian
[20] = tested on: K-562 leukemia
[21] = tested on: KM12 colon
[22] = tested on: KM20L2 colon
[23] = tested on: LOX IMVI melanoma
[24] = tested on: LXFL 529 NSCLC
[25] = tested on: M14 melanoma
[26] = tested on: M19-MEL melanoma
[27] = tested on: MALME-3M melanoma
[28] = tested on: MOLT-4 leukemia
[29] = tested on: NCI-H226 lung
[30] = tested on: NCI-H23 lung
[31] = tested on: NCI-H522 lung
[32] = tested on: OVCAR-3 ovarian
[33] = tested on: OVCAR-4 ovarian
[34] = tested on: OVCAR-5 ovarian
[35] = tested on: OVCAR-8 ovarian
[36] = tested on: RPMI-8226 leukemia
[37] = tested on: RXF 393 renal
[38] = tested on: SF-268 CNS
[39] = tested on: SF-295 CNS
[40] = tested on: SF-539 CNS
[41] = tested on: SK-MEL-2 melanoma
[42] = tested on: SK-MEL-28 melanoma
[43] = tested on: SK-MEL-5 melanoma
[44] = tested on: SN12C renal
[45] = tested on: SNB-19 CNS
[46] = tested on: SNB-75 CNS
[47] = tested on: SNB-78 CNS
[48] = tested on: SW-620 colon
[49] = tested on: TK-10 renal
[50] = tested on: U251 CNS
[51] = tested on: UACC-257 melanoma
[52] = tested on: UACC-62 melanoma
[53] = tested on: UO-31 renal
[54] = tested on: XF 498 CNS
[55] = tested on: NCI-H460 lung
[56] = tested on: SK-OV-3 ovarian
[57] = tested on: BT-549 breast
[58] = tested on: DU-145 prostate
[59] = tested on: HS 578T breast
[60] = tested on: MCF7 breast
[61] = tested on: MDA-MB-231 breast
[62] = tested on: MDA-MB-435
[63] = tested on: MDA-N
[64] = tested on: NCI/ADR-RES ovarian
[65] = tested on: PC-3 prostate
[66] = tested on: SR leukemia
[67] = tested on: T-47D breast

## CCN(CC)c1ccc(N=Nc2ccc(-c3nc4cccnc4o3)cc2)cc1
[1]
  TGI: > 100 µM
[2]
  TGI: > 100 µM
[3]
  TGI: > 100 µM
[4]
  TGI: > 100 µM
[5]
  TGI: > 100 µM
[6]
  TGI: > 100 µM
[7]
  TGI: > 100 µM
[8]
  TGI: > 100 µM
[9]
  TGI: > 100 µM
[10]
  TGI: > 100 µM
[11]
  TGI: > 100 µM
[12]
  TGI: > 100 µM
[13]
  TGI: > 100 µM
[14]
  TGI: > 100 µM
[15]
  TGI: > 100 µM
[16]
  TGI: > 100 µM
[17]
  TGI: > 100 µM
[18]
  TGI: > 100 µM
[19]
  TGI: > 100 µM
[20]
  TGI: > 100 µM
[21]
  TGI: > 100 µM
[22]
  TGI: > 100 µM
[23]
  TGI: > 100 µM
[24]
  TGI: > 100 µM
[25]
  TGI: > 100 µM
[26]
  TGI: > 100 µM
[27]
  TGI: > 100 µM
[28]
  TGI: > 100 µM
[29]
  TGI: > 100 µM
[30]
  TGI: > 100 µM
[31]
  TGI: > 100 µM
[32]
  TGI: > 100 µM
[33]
  TGI: > 100 µM
[34]
  TGI: > 100 µM
[35]
  TGI: > 100 µM
[36]
  TGI: > 100 µM
[37]
  TGI: > 100 µM
[38]
  TGI: > 100 µM
[39]
  TGI: > 100 µM
[40]
  TGI: > 100 µM
[41]
  TGI: > 100 µM
[42]
  TGI: > 100 µM
[43]
  TGI: > 100 µM
[44]
  TGI: > 100 µM
[45]
  TGI: > 100 µM
[46]
  TGI: > 100 µM
[47]
  TGI: > 100 µM
[48]
  TGI: > 100 µM
[49]
  TGI: > 100 µM
[50]
  TGI: > 100 µM
[51]
  TGI: > 100 µM
[52]
  TGI: > 100 µM
[53]
  TGI: > 100 µM
[54]
  TGI: > 100 µM

## O=C(Nc1ccccc1)c1ccc(Cl)c([N+](=O)[O-])c1
[1]
  TGI: 20.8 µM
[2]
  TGI: 63.9 µM
[3]
  TGI: > 100 µM
[5]
  TGI: 40.4 µM
[6]
  TGI: 28.7 µM
[7]
  TGI: 70 µM
[8]
  TGI: > 100 µM
[9]
  TGI: 33.2 µM
[10]
  TGI: 14.2 µM
[11]
  TGI: > 100 µM
[14]
  TGI: 46.5 µM
[16]
  TGI: > 100 µM
[18]
  TGI: 70.1 µM
[19]
  TGI: 54.3 µM
[20]
  TGI: 14.3 µM
[21]
  TGI: 12.7 µM
[22]
  TGI: 47.5 µM
[23]
  TGI: > 100 µM
[24]
  TGI: 18.5 µM
[25]
  TGI: 29.9 µM
[26]
  TGI: 34.3 µM
[27]
  TGI: 42.4 µM
[28]
  TGI: 21.8 µM
[29]
  TGI: 68.4 µM
[30]
  TGI: 63.6 µM
[55]
  TGI: 98.9 µM
[31]
  TGI: 32 µM
[32]
  TGI: 43.5 µM
[35]
  TGI: 39.6 µM
[36]
  TGI: 37.6 µM
[37]
  TGI: 75.5 µM
[39]
  TGI: > 100 µM
[40]
  TGI: 60.5 µM
[41]
  TGI: 32.4 µM
[42]
  TGI: 61.4 µM
[43]
  TGI: 20 µM
[56]
  TGI: 65 µM
[44]
  TGI: 79.4 µM
[45]
  TGI: 97.4 µM
[46]
  TGI: 71.6 µM
[47]
  TGI: 83.9 µM
[48]
  TGI: 34 µM
[49]
  TGI: > 100 µM
[50]
  TGI: > 100 µM
[51]
  TGI: 48.4 µM
[52]
  TGI: 24.9 µM
[53]
  TGI: > 100 µM
[54]
  TGI: 43.4 µM

## O=C1c2ccccc2CC12Cc1ccc3c(c1C2)CCC3 (stereo unspecified)
[1]
  TGI: 51.7 µM
[2]
  TGI: > 100 µM
[3]
  TGI: 64.2 µM
[4]
  TGI: 61 µM
[57]
  TGI: > 100 µM
[5]
  TGI: > 100 µM
[6]
  TGI: 49.3 µM
[7]
  TGI: 59.3 µM
[58]
  TGI: > 100 µM
[11]
  TGI: 47.7 µM
[12]
  TGI: 54.7 µM
[13]
  TGI: 40.1 µM
[14]
  TGI: 31.6 µM
[15]
  TGI: 42.1 µM
[16]
  TGI: 69.5 µM
[17]
  TGI: 34.9 µM
[59]
  TGI: 83.4 µM
[18]
  TGI: 29.2 µM
[19]
  TGI: > 100 µM
[20]
  TGI: > 100 µM
[21]
  TGI: 73.9 µM
[23]
  TGI: 24.8 µM
[25]
  TGI: 49.1 µM
[27]
  TGI: 30.3 µM
[60]
  TGI: 39.6 µM
[61]
  TGI: 47.1 µM
[62]
  TGI: 33.7 µM
[63]
  TGI: 44.4 µM
[28]
  TGI: > 100 µM
[29]
  TGI: 64.7 µM
[30]
  TGI: > 100 µM
[55]
  TGI: 79.2 µM
[31]
  TGI: 25.2 µM
[64]
  TGI: 28.4 µM
[32]
  TGI: 41.7 µM
[33]
  TGI: > 100 µM
[34]
  TGI: 42.2 µM
[35]
  TGI: > 100 µM
[65]
  TGI: > 100 µM
[36]
  TGI: 59.6 µM
[37]
  TGI: 38.7 µM
[38]
  TGI: > 100 µM
[39]
  TGI: 76.5 µM
[40]
  TGI: 90.2 µM
[41]
  TGI: 30.2 µM
[42]
  TGI: > 100 µM
[43]
  TGI: 28.8 µM
[56]
  TGI: > 100 µM
[44]
  TGI: > 100 µM
[45]
  TGI: > 100 µM
[46]
  TGI: 97.9 µM
[66]
  TGI: 44.1 µM
[48]
  TGI: > 100 µM
[67]
  TGI: > 100 µM
[49]
  TGI: 26.7 µM
[50]
  TGI: 38 µM
[51]
  TGI: 30.2 µM
[52]
  TGI: 60.5 µM
[53]
  TGI: > 100 µM
